# Source: patent US20190381017A1, “Compositions Comprising Serdexmethylphenidate Conjugates And Methods Of Use Thereof” (KemPharm, Inc., priority 2018, published 2019)
# Structures can show the parent of a compound that is named as a salt.
# Key:
# [1] = test system: recreational stimulant users; test: Intravenous abuse potential, VAS pharmacodynamic scores (Example 2); format: in vivo, human
# Description: “Drug liking” score, used herein, is the score used to assess the degree that a human participant likes a drug effect at the time the question is being asked (that is, at the moment). It is scored using a 0 to 100 point bipolar visual analogue scale (VAS) anchored in the center with a neutral anchor of “neither like nor dislike” (score of 50), on the left with “strong disliking” (score of 0) and on the right with “strong liking” (score of 100).
# “Euphoria” or “Feeling High” score, used herein, is the term to describe the score used to assess the degree that a human participant is high at the time the question is being asked (that is, at the moment). It is scored using a 0 to 100 point unipolar visual analogue scale (VAS) anchored on the left with “Not at All” (score of 0) and on the right with “Extremely” (score of 100).
# “Take Drug Again” score, used herein, is the term to describe the score used to assess the degree that a human participant wants to take the drug again, if given the opportunity, based on his/her opinion now, i.e., at the time the question is being asked. It is scored using a 0 to 100 point unipolar visual analogue scale (VAS) anchored on the left with “Definitely Would Not” (score of 0) and on the right with “Definitely Would” (score of 100).
# “Overall Drug Liking” score, used herein, is the term to describe the score used to assess the human subject's global perception of drug liking (i.e., the subjective effects over the whole course of the drug experience including any carryover effects). Subjects respond to the statement “Overall, my liking for this drug is.” The question is scored using a 0-100 point bipolar VAS anchored on the left with “Strong Disliking” (score of 0); “Neither Like nor Dislike” (score of 50) in the middle, and anchored on the right with “Strong Liking” (score of 100). This scale has the advantage of the human subject being relatively less affected or unaffected by acute study drug effects (if any) by the time of the assessment.
# “Good Effects” score, used herein, is the term to describe the score used to assess the degree that a human participant is feeling good drug effects at the time the question is being asked (that is, at the moment). Subjects respond to the statement “At this moment, I can feel good drug effects.” It is scored using a 0 to 100 point unipolar visual analogue scale (VAS) anchored on the left with “Not at All” (score of 0) and on the right with “Extremely” (score of 100).
# Safety assessments were performed throughout the study.
# [2] = test system: recreational stimulant users; test: Treatment-emergent adverse events, intravenous study (Example 2); settings: SDX Cl 30 mg (N=31), d-MPH HCl 15 mg (N=30)
# Procedure: A study was conducted in humans to assess the intravenous abuse potential of serdexmethylphenidate relative to unconjugated d-methylphenidate and placebo in recreational stimulant abusers. This was a Phase 1, randomized, double-blind study in which serdexmethylphenidate and d-methylphenidate were administered intravenously in recreational stimulant users with a history of non-oral abuse. In Part A of the study, subjects (Cohort 1) participated in a dose-escalation phase to determine the optimal dose of intravenous d-methylphenidate based on tolerability and abuse-related pharmacodynamic assessments. […] The doses of serdexmethylphenidate and d-methylphenidate are equivalent with respect to molar amount of d-methylphenidate. FDA-recommended abuse potential measures and blood samples were collected at different times after dosing. Safety assessments were performed throughout the study.
# [3] = SDX Cl 30 mg, d-MPH HCl 15 mg, 12 hours
# [4] = SDX Cl 30 mg, d-MPH HCl 15 mg, 12 hours, unipolar VAS
# [5] = SDX Cl 30 mg, d-MPH HCl 15 mg, 24 hours
# [6] = SDX Cl 30 mg, d-MPH HCl 15 mg, 24 hours, unipolar VAS
# [7] = SDX Cl 30 mg, d-MPH HCl 15 mg, bipolar VAS
# [8] = SDX Cl 30 mg, d-MPH HCl 15 mg, unipolar VAS
# [9] = d-MPH HCl 15 mg vs SDX Cl 30 mg, bipolar VAS
# [10] = d-MPH HCl 15 mg vs SDX Cl 30 mg, unipolar VAS
# [11] = SDX Cl 30 mg vs placebo, bipolar VAS
# [12] = SDX Cl 30 mg vs placebo, unipolar VAS
smiles,measurement,setting,value
"COC(=O)[C@H](c1ccccc1)[C@H]1CCCCN1 [d-methylphenidate hydrochloride, d-threo-methylphenidate hydrochloride]",Mean Overall Drug Liking,[1]; [3],68.0
same,Median Overall Drug Liking,[1]; [3],73.0
same,Mean Take Drug Again,[1]; [4],61.3
same,Median Take Drug Again,[1]; [4],69.5
same,Mean Overall Drug Liking,[1]; [5],67.3
same,Median Overall Drug Liking,[1]; [5],70.5
same,Mean Take Drug Again,[1]; [6],54.9
same,Median Take Drug Again,[1]; [6],58.5
same,Drug Liking Emax (median),[1]; [7],84.5
same,Overall Drug Liking Emax (mean),[1]; [7],72.4
same,Overall Drug Liking Emax (median),[1]; [7],74.0
same,Feeling High Emax (mean),[1]; [8],77.4
same,Feeling High Emax (median),[1]; [8],79.0
same,Good Effects Emax (mean),[1]; [8],82.1
same,Good Effects Emax (median),[1]; [8],85.0
same,Take Drug Again Emax (mean),[1]; [8],63.3
same,Take Drug Again Emax (median),[1]; [8],72.5
same,Median difference Drug Liking Emax,[1]; [9],29.0
same,"Median difference Overall Drug Liking, 12 hours",[1]; [9],16.0
same,"Median difference Overall Drug Liking, 24 hours",[1]; [9],13.5
same,"Median difference Overall Drug Liking, Emax",[1]; [9],18.0
same,"Mean difference Take Drug Again, 12 hours",[1]; [10],43.3
same,"Mean difference Take Drug Again, 24 hours",[1]; [10],39.2
same,"Mean difference Take Drug Again, Emax",[1]; [10],43.1
same,Median difference Feeling High Emax,[1]; [10],67.0
same,Median difference Good Effects Emax,[1]; [10],73.0
same,"TEAE Change in sustained attention, % of subjects",[2],(6.7) %
same,"TEAE Change in sustained attention, n subjects",[2],2
same,"TEAE Dry mouth, % of subjects",[2],(20.0) %
same,"TEAE Dry mouth, n subjects",[2],6
same,"TEAE Energy increased, % of subjects",[2],(3.3) %
same,"TEAE Energy increased, n subjects",[2],1
same,"TEAE Euphoric mood, % of subjects",[2],(56.7) %
same,"TEAE Euphoric mood, n subjects",[2],17
same,"TEAE Feeling abnormal, % of subjects",[2],(6.7) %
same,"TEAE Feeling abnormal, n subjects",[2],2
same,"TEAE Feeling hot, % of subjects",[2],(20.0) %
same,"TEAE Feeling hot, n subjects",[2],6
same,"TEAE Feeling jittery, % of subjects",[2],(6.7) %
same,"TEAE Feeling jittery, n subjects",[2],2
same,"TEAE Feeling of relaxation, % of subjects",[2],(3.3) %
same,"TEAE Feeling of relaxation, n subjects",[2],1
same,"TEAE Headache, % of subjects",[2],(3.3) %
same,"TEAE Headache, n subjects",[2],1
same,"TEAE Heart rate increased, % of subjects",[2],(16.7) %
same,"TEAE Heart rate increased, n subjects",[2],5
same,"TEAE Hyperhidrosis (sweaty hands), % of subjects",[2],(13.3) %
same,"TEAE Hyperhidrosis (sweaty hands), n subjects",[2],4
same,"TEAE Hypervigilance, % of subjects",[2],(33.3) %
same,"TEAE Hypervigilance, n subjects",[2],10
same,"TEAE Nausea, % of subjects",[2],(10.0) %
same,"TEAE Nausea, n subjects",[2],3
same,"TEAE Palpitations, % of subjects",[2],(6.7) %
same,"TEAE Palpitations, n subjects",[2],2
same,"TEAE Paraesthesia (tingling), % of subjects",[2],(6.7) %
same,"TEAE Paraesthesia (tingling), n subjects",[2],2
same,"TEAE Sinus tachycardia, % of subjects",[2],(13.3) %
same,"TEAE Sinus tachycardia, n subjects",[2],4
same,"TEAE Somnolence, % of subjects",[2],(13.3) %
same,"TEAE Somnolence, n subjects",[2],4
same,"TEAE Tachycardia, % of subjects",[2],(13.3) %
same,"TEAE Tachycardia, n subjects",[2],4
COC(=O)[C@H](c1ccccc1)[C@H]1CCCCN1C(=O)OC[n+]1cccc(C(=O)N[C@@H](CO)C(=O)O)c1.[Cl-] [serdexmethylphenidate chloride],"Mean difference Overall Drug Liking, 12 hours",[1]; [11],2.8
same,"Mean difference Overall Drug Liking, 24 hours",[1]; [11],1.2
same,"Mean difference Overall Drug Liking, Emax",[1]; [11],1.4
same,Median difference Drug Liking Emax,[1]; [11],0.5
same,Mean difference Feeling High Emax,[1]; [12],3.4
same,Mean difference Good Effects Emax,[1]; [12],2.2
same,"Mean difference Take Drug Again, 12 hours",[1]; [12],9.1
same,"Mean difference Take Drug Again, 24 hours",[1]; [12],1.4
same,"Mean difference Take Drug Again, Emax",[1]; [12],6.0
same,Mean Overall Drug Liking,[1]; [3],53.3
same,Median Overall Drug Liking,[1]; [3],50.0
same,Mean Take Drug Again,[1]; [4],17.5
same,Median Take Drug Again,[1]; [4],0.0
same,Mean Overall Drug Liking,[1]; [5],54.8
same,Median Overall Drug Liking,[1]; [5],50.0
same,Mean Take Drug Again,[1]; [6],15.7
same,Median Take Drug Again,[1]; [6],0.0
same,Drug Liking Emax (mean),[1]; [7],56.6
same,Drug Liking Emax (median),[1]; [7],50.5
same,Overall Drug Liking Emax (mean),[1]; [7],55.2
same,Overall Drug Liking Emax (median),[1]; [7],50.0
same,Feeling High Emax (mean),[1]; [8],14.5
same,Feeling High Emax (median),[1]; [8],0.0
same,Good Effects Emax (mean),[1]; [8],15.5
same,Good Effects Emax (median),[1]; [8],0.0
same,Take Drug Again Emax (mean),[1]; [8],19.6
same,Take Drug Again Emax (median),[1]; [8],0.0
same,"TEAE Change in sustained attention, % of subjects",[2],(0.0) %
same,"TEAE Change in sustained attention, n subjects",[2],0
same,"TEAE Dry mouth, % of subjects",[2],(0.0) %
same,"TEAE Dry mouth, n subjects",[2],0
same,"TEAE Energy increased, % of subjects",[2],(6.5) %
same,"TEAE Energy increased, n subjects",[2],2
same,"TEAE Euphoric mood, % of subjects",[2],(12.9) %
same,"TEAE Euphoric mood, n subjects",[2],4
same,"TEAE Feeling abnormal, % of subjects",[2],(3.2) %
same,"TEAE Feeling abnormal, n subjects",[2],1
same,"TEAE Feeling hot, % of subjects",[2],(6.5) %
same,"TEAE Feeling hot, n subjects",[2],2
same,"TEAE Feeling jittery, % of subjects",[2],(0.0) %
same,"TEAE Feeling jittery, n subjects",[2],0
same,"TEAE Feeling of relaxation, % of subjects",[2],(0.0) %
same,"TEAE Feeling of relaxation, n subjects",[2],0
same,"TEAE Headache, % of subjects",[2],(3.2) %
same,"TEAE Headache, n subjects",[2],1
same,"TEAE Heart rate increased, % of subjects",[2],(0.0) %
same,"TEAE Heart rate increased, n subjects",[2],0
same,"TEAE Hyperhidrosis (sweaty hands), % of subjects",[2],(3.2) %
same,"TEAE Hyperhidrosis (sweaty hands), n subjects",[2],1
same,"TEAE Hypervigilance, % of subjects",[2],(12.9) %
same,"TEAE Hypervigilance, n subjects",[2],4
same,"TEAE Nausea, % of subjects",[2],(0.0) %
same,"TEAE Nausea, n subjects",[2],0
same,"TEAE Palpitations, % of subjects",[2],(0.0) %
same,"TEAE Palpitations, n subjects",[2],0
same,"TEAE Paraesthesia (tingling), % of subjects",[2],(0.0) %
same,"TEAE Paraesthesia (tingling), n subjects",[2],0
same,"TEAE Sinus tachycardia, % of subjects",[2],(0.0) %
same,"TEAE Sinus tachycardia, n subjects",[2],0
same,"TEAE Somnolence, % of subjects",[2],(3.2) %
same,"TEAE Somnolence, n subjects",[2],1
same,"TEAE Tachycardia, % of subjects",[2],(0.0) %
same,"TEAE Tachycardia, n subjects",[2],0
